Like-named read-outs stand apart in the source and are kept apart here.
Columns and labels:
Experiment in all cases: Ras-Raf disruption / FRET / MOA assay (BRAF RBD)
Format in all cases: biochemical
KRAS G12D = KRAS G12D (Homo sapiens, UniProt P01116+P62937, G12D); conditions: with Cyclophilin A
Excerpt: (§1) Disruption of […] Ras-binding Domain (BRAF^RBD) Interaction with K-Ras by Compounds of the Invention (also Called a FRET Assay or an MOA Assay)
(§2) Note—The following protocol describes a procedure for monitoring disruption of K-Ras G12C (GMP-PNP) binding to BRAF^RBD by a compound of the invention. This protocol may also be executed substituting other Ras proteins or nucleotides, such as K-Ras G12D and K-Ras G13D.
(§3) The purpose of this biochemical assay was to measure the ability of test compounds to facilitate ternary complex formation between a nucleotide-loaded K-Ras isoform and Cyclophilin A; the resulting ternary complex disrupts binding to a BRAF^RBD construct, inhibiting K-Ras signaling through a RAF effector. Data is reported as IC50 values.
(§4) In assay buffer containing 25 mM HEPES pH 7.3, 0.002% Tween20, 0.1% BSA, 100 mM NaCl and 5 mM MgCl2, tagless Cyclophilin A, His6-K-Ras-GMPPNP, and GST-BRAF^RBD were combined in a 384-well assay plate at final concentrations of 25 μM, 12.5 nM, and 50 nM, respectively. Compound was present in plate wells as a 10-point 3-fold dilution series starting at a final concentration of 30 μM. After incubation at 25° C. for 3 hours, a mixture of anti-His Eu-W1024 and anti-GST allophycocyanin was then added to assay sample wells at final concentrations of 10 nM and 50 nM, respectively, and the reaction incubated for an additional 1.5 hours. […] Compounds that facilitate disruption of a K-Ras:RAF complex were identified as those eliciting a decrease in the TR-FRET ratio relative to DMSO control wells.

KRAS G12S = KRAS G12S (Homo sapiens, UniProt P01116+P62937, G12S); conditions: with Cyclophilin A
Excerpt: as §1, §2, §3, §4

KRAS G12V = KRAS G12V (Homo sapiens, UniProt P01116+P62937, G12V); conditions: with Cyclophilin A
Excerpt: as §1, §2, §3, §4

KRAS G13C = KRAS G13C (Homo sapiens, UniProt P01116+P62937, G13C); conditions: with Cyclophilin A
Excerpt: as §1, §2, §3, §4

KRAS G13D = KRAS G13D (Homo sapiens, UniProt P01116+P62937, G13D); conditions: with Cyclophilin A
Excerpt: as §1, §2, §3, §4

KRAS WT = KRAS WT (Homo sapiens, UniProt P01116+P62937); conditions: with Cyclophilin A
Excerpt: as §1, §2, §3, §4

NRAS G12C = NRAS G12C (Homo sapiens, UniProt P01111+P62937, G12C)
Excerpt: as §1, §2, §3, §4

KRAS G12C = KRAS G12C (Homo sapiens, UniProt P01116+P62937, G12C); conditions: with Cyclophilin A
Excerpt: as §1, §2, §3, §4
as §3, with “is” for “was”, “Ras” for “K-Ras”, “cyclophilin” for “Cyclophilin”, “effector.” for “effector. Data is reported as IC50 values.”
In assay buffer containing 25 mM HEPES pH 7.3, 0.002% Tween20, 0.1% BSA, 100 mM NaCl and 5 mM MgCl2, tagless Cyclophilin A, His6-K-Ras-GMPPNP (or other Ras variant), and GST-BRAF^RBD are combined in a 384-well assay plate at final concentrations of 25 μM, 12.5 nM and 50 nM, respectively. Compound is present in plate wells as a 10-point 3-fold dilution series starting at a final concentration of 30 μM. After incubation at 25° C. for 3 hours, a mixture of Anti-His Eu-W1024 and anti-GST allophycocyanin is then added to assay sample wells at final concentrations of 10 nM and 50 nM, respectively, and the reaction incubated for an additional 1.5 hours. […] Compounds that facilitate disruption of a Ras:RAF complex are identified as those eliciting a decrease in the TR-FRET ratio relative to DMSO control wells.

[1] = Ras-Raf disruption, read-out: KRAS G12D FRET data IC50
[2] = Ras-Raf disruption, read-out: KRAS G12S FRET data IC50
[3] = Ras-Raf disruption, read-out: KRAS G12V FRET data IC50
[4] = Ras-Raf disruption, read-out: KRAS G13C FRET data IC50
[5] = Ras-Raf disruption, read-out: KRAS G13D FRET data IC50
[6] = Ras-Raf disruption, read-out: KRAS WT FRET data IC50
[7] = NRAS G12C, read-out: NRAS G12C FRET data IC50
[8] = Ras-Raf disruption, read-out: KRAS G12C FRET data IC50

Sequence of KRAS G12C (P01116 1-169 isoform P01116-2 G12C limits assumed): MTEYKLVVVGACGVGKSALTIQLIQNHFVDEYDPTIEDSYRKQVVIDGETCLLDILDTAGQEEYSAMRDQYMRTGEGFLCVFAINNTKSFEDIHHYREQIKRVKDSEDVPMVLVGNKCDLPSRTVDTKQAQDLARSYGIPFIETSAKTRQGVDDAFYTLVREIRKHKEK
Sequence of KRAS G12C (P62937 whole entry): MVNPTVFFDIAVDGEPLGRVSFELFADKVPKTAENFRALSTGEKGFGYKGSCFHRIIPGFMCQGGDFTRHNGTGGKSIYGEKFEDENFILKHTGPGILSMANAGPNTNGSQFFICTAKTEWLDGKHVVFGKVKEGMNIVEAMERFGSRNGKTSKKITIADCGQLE
Sequence of KRAS G13D (P01116 1-169 isoform P01116-2 G13D limits assumed): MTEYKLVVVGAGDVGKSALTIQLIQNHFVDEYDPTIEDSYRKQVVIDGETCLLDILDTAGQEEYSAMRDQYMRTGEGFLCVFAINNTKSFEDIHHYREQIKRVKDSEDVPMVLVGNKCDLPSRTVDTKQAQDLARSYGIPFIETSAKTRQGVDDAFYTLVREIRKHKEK
Sequence of KRAS G13D (P62937 whole entry): as the sequence (P62937 whole entry) above
Sequence of KRAS G12S (P01116 1-169 isoform P01116-2 G12S limits assumed): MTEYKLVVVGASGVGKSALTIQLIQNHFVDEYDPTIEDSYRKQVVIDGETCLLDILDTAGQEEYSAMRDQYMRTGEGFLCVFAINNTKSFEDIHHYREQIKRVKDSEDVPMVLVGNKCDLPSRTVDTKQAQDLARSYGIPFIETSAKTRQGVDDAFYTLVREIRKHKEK
Sequence of KRAS G12S (P62937 whole entry): as the sequence (P62937 whole entry) above
Sequence of KRAS G13C (P01116 1-169 isoform P01116-2 G13C limits assumed): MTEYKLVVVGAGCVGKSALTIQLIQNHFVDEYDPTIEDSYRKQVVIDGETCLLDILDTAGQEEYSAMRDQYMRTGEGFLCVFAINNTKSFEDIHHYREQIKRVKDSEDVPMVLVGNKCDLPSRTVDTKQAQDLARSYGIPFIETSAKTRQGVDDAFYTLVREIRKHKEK
Sequence of KRAS G13C (P62937 whole entry): as the sequence (P62937 whole entry) above
Sequence of KRAS WT (P01116 1-169 isoform P01116-2 limits assumed): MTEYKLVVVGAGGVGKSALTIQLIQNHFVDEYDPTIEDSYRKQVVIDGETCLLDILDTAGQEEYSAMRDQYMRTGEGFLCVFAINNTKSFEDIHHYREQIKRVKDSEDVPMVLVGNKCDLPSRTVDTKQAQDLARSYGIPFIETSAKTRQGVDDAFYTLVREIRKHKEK
Sequence of KRAS WT (P62937 whole entry): as the sequence (P62937 whole entry) above
Sequence of NRAS G12C (P01111 whole entry G12C): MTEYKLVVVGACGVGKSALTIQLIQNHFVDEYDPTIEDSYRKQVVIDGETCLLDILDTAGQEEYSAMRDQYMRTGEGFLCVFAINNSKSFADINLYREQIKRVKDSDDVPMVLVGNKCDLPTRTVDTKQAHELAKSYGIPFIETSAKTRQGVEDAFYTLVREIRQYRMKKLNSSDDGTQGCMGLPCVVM
Sequence of NRAS G12C (P62937 whole entry): as the sequence (P62937 whole entry) above
Sequence of KRAS G12V (P01116 1-169 isoform P01116-2 G12V limits assumed): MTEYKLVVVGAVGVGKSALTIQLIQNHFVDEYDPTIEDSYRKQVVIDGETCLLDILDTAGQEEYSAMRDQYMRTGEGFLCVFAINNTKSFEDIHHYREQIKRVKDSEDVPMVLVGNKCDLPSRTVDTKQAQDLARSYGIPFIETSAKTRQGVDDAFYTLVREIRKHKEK
Sequence of KRAS G12V (P62937 whole entry): as the sequence (P62937 whole entry) above
Sequence of KRAS G12D (P01116 1-169 isoform P01116-2 G12D limits assumed): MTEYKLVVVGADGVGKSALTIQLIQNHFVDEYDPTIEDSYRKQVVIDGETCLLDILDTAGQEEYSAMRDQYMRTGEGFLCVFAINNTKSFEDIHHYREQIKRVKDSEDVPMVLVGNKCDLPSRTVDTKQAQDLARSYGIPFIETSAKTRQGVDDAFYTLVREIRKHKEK
Sequence of KRAS G12D (P62937 whole entry, the tested form may be a part): as the sequence (P62937 whole entry) above

SMILES | IC50 (KRAS G12D; KRAS G12D FRET data IC50, Ras-Raf disruption) [nM] | IC50 (KRAS G12S; KRAS G12S FRET data IC50, Ras-Raf disruption) [nM] | IC50 (KRAS G12V; KRAS G12V FRET data IC50, Ras-Raf disruption) [nM] | IC50 (KRAS G13C; KRAS G13C FRET data IC50, Ras-Raf disruption) [nM] | IC50 (KRAS G13D; KRAS G13D FRET data IC50, Ras-Raf disruption) [nM] | IC50 (KRAS WT; KRAS WT FRET data IC50, Ras-Raf disruption) [nM] | IC50 (NRAS G12C; NRAS G12C FRET data IC50, NRAS G12C) [nM] | IC50 (KRAS G12C; KRAS G12C FRET data IC50, Ras-Raf disruption) [nM] | IC50 (KRAS G12D; [1]) [nM] | IC50 (KRAS G12S; [2]) [nM] | IC50 (KRAS G12V; [3]) [nM] | IC50 (KRAS G13C; [4]) [nM] | IC50 (KRAS G13D; [5]) [nM] | IC50 (KRAS WT; [6]) [nM] | IC50 (NRAS G12C; [7]) [nM] | IC50 (KRAS G12C; [8]) [nM]
CCn1c(-c2cccnc2[C@H](C)OC)c2c3cc(ccc31)-c1cc(O)cc(c1)C[C@H](NC(=O)[C@H](C(C)C)N(C)C(=O)CN(C)C(=O)[C@H]1CN1)C(=O)N1CCC[C@H](N1)C(=O)OCC(C)(C)C2 (single isomer, unassigned) [Example 42B] | 1000 to 10000 | 1000 to 10000 | 1000 to 10000 | 100 to 1000 | 1000 to 10000 | 1000 to 10000 | 100 to 1000 | 100 to 1000 |  |  |  |  |  |  |  | 
CCn1c(-c2cccnc2[C@H](C)OC)c2c3cc(ccc31)-c1cc(O)cc(c1)C[C@H](NC(=O)[C@H](C(C)C)N(C)C(=O)c1ccc([C@@H]3CN3)cc1)C(=O)N1CCC[C@H](N1)C(=O)OCC(C)(C)C2 [Example 131] |  |  |  |  |  |  |  |  | 100 to 1000 | 100 to 1000 | 100 to 1000 | 10 to 100 | 100 to 1000 | 100 to 1000 | 10 to 100 | 10 to 100
CCn1c(-c2cccnc2[C@H](C)OC)c2c3cc(ccc31)-c1cc(O)cc(c1)C[C@H](NC(=O)[C@H](C(C)C)N(C)C(=O)[C@]1(F)CCN(C(=O)[C@@H]3CN3)C1)C(=O)N1CCC[C@H](N1)C(=O)OCC(C)(C)C2 (atropisomer, axis not shown) [Example 184] |  |  |  |  |  |  |  |  | 100 to 1000 | 100 to 1000 | 100 to 1000 | 10 to 100 | 100 to 1000 | 100 to 1000 | < 10 | < 10
CCn1c(-c2cccnc2[C@H](C)OC)c2c3cc(ccc31)-c1cc(O)cc(c1)C[C@H](NC(=O)[C@H](C(C)C)N(C)C(=O)[C@H]1C[C@H](NC(=O)[C@H]3CN3)C1)C(=O)N1CCC[C@H](N1)C(=O)OCC(C)(C)C2 [Example 182] |  |  |  |  |  |  |  |  | 100 to 1000 | 10 to 100 | 10 to 100 | < 10 | 10 to 100 | 10 to 100 | 10 to 100 | 10 to 100
CCn1c(-c2cccnc2[C@H](C)OC)c2c3cc(ccc31)-c1cc(O)cc(c1)C[C@H](NC(=O)[C@H](C(C)C)N(C)C(=O)N1CC(NC(=O)[C@@H]3CN3)C1)C(=O)N1CCC[C@H](N1)C(=O)OCC(C)(C)C2 (atropisomer, axis not shown) [Example 188] |  |  |  |  |  |  |  |  | 100 to 1000 | 100 to 1000 | 100 to 1000 | 10 to 100 | 100 to 1000 | 100 to 1000 | 10 to 100 | 10 to 100
CCn1c(-c2cccnc2[C@H](C)OC)c2c3cc(ccc31)-c1cc(O)cc(c1)C[C@H](NC(=O)[C@H](C(C)C)N1CCC3(CN(C(=O)[C@@H]4CN4)C3)C1=O)C(=O)N1CCC[C@H](N1)C(=O)OCC(C)(C)C2 [Example 109] |  |  |  |  |  |  |  |  | 1000 to 10000 | 100 to 1000 | 100 to 1000 | 10 to 100 | 10 to 100 | 10 to 100 | < 10 | < 10
CCn1c(-c2cccnc2[C@H](C)OC)c2c3cc(ccc31)-c1cccc(c1)C[C@H](NC(=O)[C@H](C(C)C)N(C)C(=O)[C@H]1CC[C@H](N=C=NC(C)C)C1)C(=O)N1CCC[C@H](N1)C(=O)OCC(C)(C)C2 [Example 124] |  |  |  |  |  |  |  |  | 1000 to 10000 | > 10000 | 1000 to 10000 | 10 to 100 | > 10000 | 1000 to 10000 | 10 to 100 | 10 to 100
CCn1c(-c2cccnc2[C@H](C)OC)c2c3cc(ccc31)-c1cccc(c1)C[C@H](NC(=O)[C@H](C(C)C)N(C)C(=O)CCN=C=NCc1ccccc1OC)C(=O)N1CCC[C@H](N1)C(=O)OCC(C)(C)C2 [Example 73] |  |  |  |  |  |  |  |  | 100 to 1000 | 1000 to 10000 | > 10000 | 1000 to 10000 | 1000 to 10000 | 1000 to 10000 | 10 to 100 | 10 to 100
CCn1c(-c2cccnc2[C@H](C)OC)c2c3cc(ccc31)-c1cc(O)cc(c1)C[C@H](NC(=O)[C@H](C(C)C)N(C)C(=O)C1CN(S(=O)(=O)[C@@H]3CN3C)C1)C(=O)N1CCC[C@H](N1)C(=O)OCC(C)(C)C2 (single isomer, unassigned) [Example 118] |  |  |  |  |  |  |  |  | 1000 to 10000 | 100 to 1000 | 100 to 1000 | 10 to 100 | 100 to 1000 | 100 to 1000 | 100 to 1000 | 100 to 1000
CCn1c(-c2cccnc2[C@H](C)OC)c2c3cc(ccc31)-c1cc(O)cc(c1)C[C@H](NC(=O)[C@H](C(C)C)N(C)C(=O)[C@H]1CCN(S(=O)(=O)[C@H]3CN3C)C1)C(=O)N1CCC[C@H](N1)C(=O)OCC(C)(C)C2 (single isomer, unassigned) [Example 57] |  |  |  |  |  |  |  |  | 1000 to 10000 | 100 to 1000 | 100 to 1000 | 10 to 100 | 100 to 1000 | 100 to 1000 | 100 to 1000 | 100 to 1000
CCn1c(-c2cnccc2COC)c2c3cc(ccc31)-c1cccc(c1)C[C@H](NC(=O)[C@H](C(C)C)N(C)C(=O)CCN=C=NCc1c(OC)cccc1OC)C(=O)N1CCC[C@H](N1)C(=O)OCC(C)(C)C2 [62 A and B] |  |  |  |  |  |  |  |  | 1000 to 10000 | 1000 to 10000 | > 10000 | 1000 to 10000 | 1000 to 10000 | 1000 to 10000 | 1000 to 10000 | 1000 to 10000
CCn1c(-c2cccnc2[C@H](C)OC)c2c3cc(ccc31)-c1cc(O)cc(c1)C[C@H](NC(=O)[C@H](C(C)C)N(C)C(=O)CC1CN(C(=O)[C@H]3CN3)C1)C(=O)N1CCC[C@H](N1)C(=O)OCC(C)(C)C2 [Example 179] |  |  |  |  |  |  |  |  | 100 to 1000 | 100 to 1000 | 100 to 1000 | 10 to 100 | 100 to 1000 | 100 to 1000 | 10 to 100 | 10 to 100
CCn1c(-c2cccnc2[C@H](C)OC)c2c3cc(ccc31)-c1cc(O)cc(c1)C[C@H](NC(=O)[C@H](C(C)C)N(C)C(=O)N1CCCN(C(=O)[C@H]3CN3)CC1)C(=O)N1CCC[C@H](N1)C(=O)OCC(C)(C)C2 (atropisomer, axis not shown) [Example 190] |  |  |  |  |  |  |  |  | 100 to 1000 | 10 to 100 | 10 to 100 | 10 to 100 | 100 to 1000 | 10 to 100 | 10 to 100 | < 10
CCn1c(-c2cccnc2[C@H](C)OC)c2c3cc(ccc31)-c1cccc(c1)C[C@H](NC(=O)[C@H](C(C)C)N(C)C(=O)[C@H]1CC[C@H](N=C=NC(C)(C)C)C1)C(=O)N1CCC[C@H](N1)C(=O)OCC(C)(C)C2 [Example 125] |  |  |  |  |  |  |  |  | 1000 to 10000 | > 10000 | > 10000 | 100 to 1000 | > 10000 | > 10000 | 10 to 100 | 10 to 100

— patent US20230233569A1 (Revolution Medicines, Inc., priority 2020, published 2023)
